Laboratory results published in patent US11147799B2, “Topical pharmaceutical composition containing phenytoin and a (co-) analgesic for the treatment of chronic pain” (Topical Innovations B.V., priority 2016, dated 2021).
“Also recorded” adds a separate entry of the source.

Tests used:
neuropathic pain [1] = experiment: Earlier oral medication of the case patients (case histories); details: case history of the individual patient
[2] = after oral administration; corresponding tissue; cited from earlier work
neuropathic pain [3] = details: 21% for placebo; cited from earlier work

Compound | pain relieving effect of earlier oral medication (words) (neuropathic pain [1]) | side effects of earlier oral medication (neuropathic pain [1]) | also measured
CN(C)CCC=C1c2ccccc2CCc2ccccc21 [Amitriptyline] | did not have any pain relieving effect |  | 
O=C(O)Cc1ccccc1Nc1c(Cl)cccc1Cl [diclofenac] |  |  | Cmax of diclofenac in muscles [2]: 1160 ng/mL
NCC1(CC(=O)O)CCCCC1 [gabapentin] |  | too much side effects | patients who achieved 50% or more pain relief (neuropathic pain [3]): about 35%
COc1ccc(C(CN(C)C)C2(O)CCCCC2)cc1 (centres unmarked) [venlafaxine] |  | induced nausea | 
CC(C)C[C@H](CN)CC(=O)O [pregabalin] | without sufficient pain reduction; also recorded: had a pain reducing effect | anxiety and depression; also recorded: too much side effects | pain relieving effect of earlier oral medication (words) (neuropathic pain [1]; listed as Pregabalin): did not have any effect
